Experimental data taken from PubChem BioAssay (NCI).
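Exposure lasted 48 hours, with cells grown in 96-well plates and compounds tested at five concentrations. TGI denotes the concentration required for complete inhibition of growth.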 Where a SMILES comes first, the peptide text is derived from it. [ ]: non-standard residue; d: D form. The star is where a group is joined. ξ: configuration not given here. ξW = NC(Cc1c[nH]c2ccccc12)C(=O)O; X30 = O=C(O)[C@H]1CCC[C@H]1N*; ξF = NC(Cc1ccccc1)C(=O)O; Boc = CC(C)(C)OC(=O)*; ξK = NCCCCC(N)C(=O)O; ξT = CC(O)C(N)C(=O)O; tBu = CC(C)(C)*

Experiments:
Test in all cases: NCI tumour cell line growth inhibition, 48 h
[1] = tested on: NCI-H460 lung
[2] = tested on: HL-60(TB) leukemia
[3] = tested on: TK-10 renal
[4] = tested on: HOP-18 NSCLC
[5] = tested on: M19-MEL melanoma
[6] = tested on: KM20L2 colon
[7] = tested on: XF 498 CNS
[8] = tested on: SNB-78 CNS
[9] = tested on: DMS 114 small cell lung
[10] = tested on: DLD-1 colon
[11] = tested on: LXFL 529 NSCLC
[12] = tested on: DMS 273 small cell lung

SMILES | TGI [1] [µM] | TGI [2] [µM] | TGI [3] [µM] | also measured
O=C1C(Cl)C(c2cccc(Br)c2)N1c1c(O)c(Cl)cc(Br)c1Cl (stereo unspecified) | 27.1 | 53.5 | 51.4 | 
O=C1c2ccccc2-n2c1nc1cc(Cl)ccc1c2=O | > 100 |  | > 100 | 
COC1CC(n2ccc(=O)[nH]c2=O)OC1CO (stereo unspecified) | > 100 |  |  | 
O=C1C=C(NCCc2cc(Cl)c(O)c(Cl)c2)C(=O)c2[nH]cnc21 | 68.3 | 32.9 | > 100 | 
Cc1cc(S(=O)(=O)Nc2nc(N)nc(N(C)C)n2)c(SC(C(=O)O)c2ccccc2)cc1Cl (stereo unspecified) | > 10 | > 10 | > 10 | 
COC(=O)c1cn(CCCCO)nn1 | > 100 |  | > 100 | 
O=C(Oc1ccc(OC(Oc2ccccc2)c2ccccc2)cc1)c1ccccc1 (stereo unspecified) | > 100 | > 31.6 | > 31.6 | 
COc1cc(O)c2c(c1O)C(=O)c1cc(C)ncc1C2=O | > 50 | > 50 | > 50 | TGI [4]: > 50 µM; TGI [5]: 23.8 µM; TGI [6]: > 50 µM; TGI [7]: > 50 µM; TGI [8]: > 50 µM; TGI [9]: > 50 µM; TGI [10]: > 50 µM; TGI [11]: > 50 µM
COc1cc(/C=C2/C(=O)N=C(NC(C)=O)N2C)ccc1OC(C)=O | > 100 | > 100 | > 100 | 
COc1cc2c(cc1OC)CN1CCc3ccccc3CC1C2 (stereo unspecified) | > 100 | > 100 | 64.3 | 
CCOC(=O)c1nc2cc(C(F)(F)F)ccc2nc1Oc1ccc(C(=O)OC)cc1 | > 100 | > 100 | > 100 | 
N#Cc1nc(NC(=O)c2ccccc2)sc1N | > 10 | > 10 | > 10 | 
O=C1CCCCCCCCCCC1CN(Cc1ccccc1)Cc1ccccc1 (stereo unspecified) |  | 76.4 | > 100 | 
ClCCCC1COc2ccccc2O1 (stereo unspecified) | > 100 | > 100 | > 100 | 
CC(C(=O)N1C(=O)N(C(=O)[C@H](C)C(O)c2ccccc2)[C@H](c2ccccc2)[C@H]1c1ccccc1)[C@@H](O)c1ccccc1 (stereo partly specified) | 78.1 | > 100 | > 100 | 
Cc1ccc(N=Nc2c(C)nn(C(=O)CC(=O)Nc3ccc(Cl)cc3)c2C)cc1C | > 100 | 56 | > 100 | 
Nc1ccc(-c2nc3ccc(Cc4ccc5nc(-c6ccc(N)cc6)oc5c4)cc3o2)cc1 | > 100 |  | > 100 | 
Nc1nc(Sc2ccc([N+](=O)[O-])cn2)c2[nH]cnc2n1 | > 64.9 | > 59.4 | > 100 | 
O=C(/C=C/c1cccs1)c1ccc(Cl)s1 | > 100 | 64.1 | > 100 | 
O=C1Cc2c(-c3ccccc3)cc(-c3ccc4ccccc4c3)nc2-c2ccccc2N1 | 87.6 |  | 29.4 | 

SMILES | TGI [1] [µM] | TGI [2] [µM] | TGI [3] [µM] | also measured
Cc1ccc(Nc2cc(=O)[nH]c(=O)[nH]2)cc1CS | > 100 |  | > 100 | 
Nc1ccc(-c2nc3ccccc3s2)cc1I | > 100 | > 100 | > 100 | 
CCN(CC)c1nc(=O)c(C(=O)C(C)(C)C)c(C(C)(C)C)o1 | > 100 | > 100 | > 100 | 
CC1=C2c3ccccc3N(S(=O)(=O)c3ccccc3)[C@H]2[C@H](C(=O)N2C3CC4CC[C@@]3(CS2(=O)=O)C4(C)C)CC1 (stereo partly specified) | > 100 | 21.9 | > 100 | 
Clc1ccc2c(Cl)nc(-c3ccccc3)nc2c1 | > 100 | 45.8 | > 100 | TGI [5]: > 100 µM; TGI [6]: 68 µM; TGI [7]: 35.6 µM; TGI [8]: 91 µM; TGI [9]: 74 µM; TGI [10]: > 100 µM; TGI [12]: > 100 µM; TGI [11]: > 100 µM
CCN(CC)CCNc1ccc2ncn3c4c(OC)ccc(=O)c4c(O)c1c23 | > 100 | > 100 | > 100 | 
Cc1cccc2c(N)c3cccc(C(=O)NCCN4CCOCC4)c3nc12 | 14 | 1.2 | 18.6 | 
O=C1c2cscc2C(=O)c2c(OCc3ccccc3)ccc(OCc3ccccc3)c21 | > 100 | > 100 | > 100 | 
CC(=O)O[C@H]1CC[C@@]2(C)C(=CC[C@H]3[C@@H]4C/C(=C\c5ccncc5)[C@H](OC(C)=O)[C@@]4(C)CC[C@@H]32)C1 | 24.4 | 16.7 | 47.9 | 
O=C(Nn1c(-c2ccccc2)nc2ccccc2c1=O)c1ccc(O)cc1 | > 100 | > 100 | > 100 | 
Nc1nc(NCC2(CO)CC(CCc3ccccc3)C2)cc(=O)[nH]1 (stereo unspecified) | > 100 | > 100 |  | 
O=C(Nc1ccc(N2C(=O)CSC2c2cccs2)cc1)c1ccc(N2C(=O)CSC2c2cccs2)cc1 (stereo unspecified) | > 100 |  | > 100 | 
Cc1cn(CCCCOC(=O)NC(CCCNC(N)=O)C(=O)O)c(=O)[nH]c1=O (stereo unspecified) | > 100 | > 100 | > 100 | 
CC(C)N(C(=O)c1ccc(NCc2cc(O)ccc2O)cc1)C(C)C | 34.6 | > 100 | 29.5 | 
CC(OC(C)(C)C)C(NC(=O)C(CCCCNC(=O)OC(C)(C)C)NC(=O)C(Cc1c[nH]c2ccccc12)NC(=O)C(N)Cc1ccccc1)C(=O)NC(Cc1ccccc1)C(=O)N[C@@H]1CCC[C@@H]1C(=O)O (stereo partly specified) (H-[ξF][ξW][ξK](Boc)[ξT](tBu)[ξF]-X30) | > 100 | 82.9 |  | 
Cc1cccc(Nc2nc(NNC(=O)Cc3ccccc3)nc(NNC(=O)c3ccncc3)n2)c1 | > 10 | > 10 | > 10 | 
N#Cc1nc(C2SCCCS2)oc1N |  | > 100 | > 100 | 
CCC(C)C(NC(=O)c1c2ccccc2nc2ccccc12)C(=O)O (stereo unspecified) | > 100 |  | > 100 | 
O=[N+]([O-])c1cc(C(F)(F)F)ccc1S(=O)(=O)N[C@@H]1CCCC[C@H]1NS(=O)(=O)c1ccc(C(F)(F)F)cc1[N+](=O)[O-] | > 100 | 3.74 | > 100 | 
Cc1n(-c2ccccc2)c2c([n+]1Cc1ccc([N+](=O)[O-])cc1)C(=O)c1ccccc1C2=O | 12.4 | 1.35 | 19.3 | TGI [4]: 17.7 µM; TGI [5]: 2.93 µM; TGI [6]: 9.84 µM; TGI [8]: 6.88 µM; TGI [9]: 1.49 µM; TGI [10]: 19.4 µM; TGI [12]: 3.87 µM; TGI [11]: 2.76 µM
